Source: patent US7928231B2, “Thienopyrazoles” (priority 2003, dated 2011)
Counter-ions that a name gives are not always drawn.

How the values were obtained:
[1] = biological target: T1, ITK (Homo sapiens, UniProt Q08881); assay: FlashPlate ITK protocol for ITK inhibition determination (ITK autophosphorylation, [γ-33P]ATP); assay type: biochemical; details: MBP-tagged ITK, read-out: IC50 (enzyme inhibition)-
T1 construct: made in house
T1 sequence (Q08881 1-620): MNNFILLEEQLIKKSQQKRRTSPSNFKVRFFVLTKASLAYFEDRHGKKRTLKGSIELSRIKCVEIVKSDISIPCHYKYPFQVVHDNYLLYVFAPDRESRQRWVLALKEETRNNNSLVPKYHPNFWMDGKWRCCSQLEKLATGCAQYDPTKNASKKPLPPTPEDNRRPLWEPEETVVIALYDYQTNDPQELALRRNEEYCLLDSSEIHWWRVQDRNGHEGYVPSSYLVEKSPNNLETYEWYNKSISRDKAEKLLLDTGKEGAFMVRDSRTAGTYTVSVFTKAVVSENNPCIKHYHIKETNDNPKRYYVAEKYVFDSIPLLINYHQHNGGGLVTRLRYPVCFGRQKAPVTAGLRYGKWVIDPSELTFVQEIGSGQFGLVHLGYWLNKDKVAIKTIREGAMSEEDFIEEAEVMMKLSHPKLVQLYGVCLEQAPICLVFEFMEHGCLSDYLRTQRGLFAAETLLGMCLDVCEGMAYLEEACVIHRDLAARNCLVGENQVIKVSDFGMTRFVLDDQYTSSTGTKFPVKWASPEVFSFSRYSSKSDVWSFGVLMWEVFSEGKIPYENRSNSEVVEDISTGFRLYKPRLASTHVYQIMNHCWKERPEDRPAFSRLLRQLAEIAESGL
Experimental: ITK kinase is produced with an N-terminal Maltose Binding Protein tag (MW=˜114 kDa) using a Baculovirus expression system. The transfer of radioactive [γ-^33P] phosphate from [γ-^33P]ATP to ITK during the autophosphorylation of ITK is measured by scintillation counting. Streptavidin-coated FlashPlate Plus™ 384 well microplates (PerkinElmer Life Sciences) are designed for in-plate radiometric assays. The interior of each well is permanently coated with a thin layer of scintillant and a covalently bound layer of Streptavidin. ITK is incubated with [γ-^33P]ATP, biotinylated anti-MBP antibody (Cell Signaling Technology™) and test compounds in a 384-well Streptavidin-coated FlashPlate. The biotinylated anti-MBP binds tightly to the MBP-tagged ITK and cross-links it to Streptavidin on the plate surface. Unreacted ^33P-ATP is washed away and ^33P-phosphorylated ITK is measured when the [γ-^33P] incorporated into ITK stimulates the scintillant on the well to emit light. Radioactivity is assessed in a Packard
TopCount scintillation counter. Reagents are pipetted and dispensed using Beckman Biomek robotic equipment. Test compounds (2 μl per well) are pre-diluted from 1 mM 100% dimethyl sulfoxide solutions into water containing 30% dimethyl sulfoxide to produce dose response curves (10 point curves from (final) 30 μM to ˜1 nM); all tests are performed in duplicate. Background binding is assessed by substituting the enzyme inhibitor EDTA (25 mM final concentration) for test compound and maximal binding is assessed by inclusion of assay buffer instead of compound. Test compounds are added to the wells first (2 μl) followed by 10 μl enzyme solution in assay buffer. After 30 minutes pre-incubation, all other reagents are added in a 10 μl volume. The final reagent concentrations/well are as follows: 20 nM enzyme, 0.25 μCi [γ-^33P]ATP, assay buffer: 20 mM HEPES (pH 7.5), 0.15 M NaCl, 3 mM MgCl2, 3 mM MnCl2, 0.01% Triton X-100, 1 mM DTT, 5% glycerol and 0.01% γ-globulin. The plate is incubated at room temperature (RT) for 60 minutes for the kinase reaction. The reaction is stopped with 20 μl of 50 mM EDTA and the biotinylated anti-MBP is allowed to bind to the ITK and the Streptavidin for a further 60 minutes at RT. The unbound reagents are washed away with 2×100 μl phosphate-buffered saline (PBS). Radioactivity is measured for 45 sec/well.

[2] = tested on: IL-4 production from anti-CD3-stimulated murine splenocytes; assay: Anti-CD3 stimulated IL-4 assay from murine splenocytes; assay type: cell-based; details: Mus musculus, Splenocyte, 72 h; BALB/c splenocytes, anti-CD3 stimulation, 3 days, IL-4 ELISA; read-out: IC50 IL-4 release inhibition- assay
Experimental: Anti-CD3 stimulated IL-4 Assay from Murine Splenocytes.
The tyrosine kinase ITK is involved in intracellular signaling events induced by several lymphocyte surface receptors. Since ITK deficient mice show an impairment in IL-4 production from T cells, a cell based assay for IL-4 production is used to measure the cellular potency of the ITK inhibitors of the present invention. In this assay the level of IL-4 is measured from the media of anti-CD3-stimulated murine splenocytes, and the ability of compounds of the present invention to inhibit this response is determined.
Spleens from the mouse strain BALB/c are isolated and used to prepare a suspension of mixed splenocytes. The spleens are homogenized with cell strainer (Falcon Cat#352350 and 5 ml syringe) in RPMI media. The mixture is spun down, and the pellets are suspended in 3 ml of Red Blood Cell Lysing Buffer (Sigma Cat#7757) and left for 10 minutes at room temperature. Cells are spun down again, and resuspended in RPMI with 10% FBS and passed through cell strainer. Total cell numbers are determined with hemocytometer.
Splenocytes are adjusted to a cell density of 10 million per ml of RPMI medium supplemented with 10% Foetal Bovine Serum (FBS) and 100 uls of the suspension plated out per well of a 96 round bottom plate. 50 uls of RPMI medium containing 4× the final concentration of test compound is added per well. For IC50 determination the following concentrations of compound are used. The starting concentration is 10 uM and 7 series of 1:3 dilutions are followed, and each compound concentration is set up in triplicate wells. 50 ul of 4× concentration are added. Cell cultures are then stimulated by addition of 50 ul of a 4 ug/ml solution of anti-CD3 antibody, (BD Bioscience Cat #553166) made up in RPMI plus 10% FBS media, and incubated in a 37° C. CO2 incubator for 3 days. At the end of the 3 day incubation, culture medium is taken and 50 uls used to assay IL-4 production by ELISA (IL-4 ELISA kit from R&D Systems, city. Cat #M4000 kit) according to the standard conditions described by the manufacturer.
IL-4 levels are plotted as a function of compound concentration. The concentration of compound resulting in 50% inhibition of IL-4, termed IC50(IL-4), is determined from the resulting curve.
Assay Procedure • 1. Add 100 ul of 1×10E7/ml mouse splenocytes in RPMI plus 10% FBS media to 96 well round bottom plates. • 2. Add 50 ul of Itk compounds (4× final concentration) in RPMI plus 10% FBS media • 3. Add 50 ul of 4 ug/ml anti-CD3 antibody in RPMI plus 10% FBS media • 4. Incubate at 37 c CO2 incubator for 3 days • 5. Transfer 150 ul culture media into fresh plate • 6. 50 ul of the media is subject to Elisa analysis (R & D Cat #M4000 kit) FlashPlate ITK Protocol for ITK Inhibition Determination

SMILES: COc1cccc(-c2cc3[nH]nc(-c4cc5ccc(OCCCN6CCC(O)CC6)cc5[nH]4)c3s2)c1
- melting point: 205 to 207 °C

SMILES: CCN1CCN(CCCOc2ccc3cc(-c4n[nH]c5ccsc45)[nH]c3c2)CC1 [Example 10, 6-[3-(4-Ethyl-piperazin-1-yl)-propoxy]-2-(1H-thieno[3,2-c]pyrazol-3-yl)-1H-indole]
- IC50 [1]: 2.94 nM
- IC50 [2]: 289 nM

SMILES: c1cc2[nH]nc(-c3cc4ccc(OCCCN5CCCCC5)cc4[nH]3)c2s1 [Example 7, 6-(3-Piperidin-1-yl-propoxy)-2-(1H-thieno[3,2-c]pyrazol-3-yl)-1H-indole]
- IC50 [1]: 1.89 nM
- IC50 [2]: 163 nM

SMILES: OC1CCN(CCCOc2ccc3[nH]c(-c4n[nH]c5ccsc45)cc3c2)CC1 [Example 16, 1-{3-[2-(1H-Thieno[3,2-c]pyrazol-3-yl)-1H-indol-5-yloxy]-propyl}-piperidin-4-ol]
- IC50 [1]: 40.9 nM

SMILES: OC1CCN(CCCOc2ccc3cc(-c4n[nH]c5ccsc45)[nH]c3c2)CC1 [Example 6, 1-{3-[2-(1H-Thieno[3,2-c]pyrazol-3-yl)-1H-indol-6-yloxy]-propyl}-piperidin-4-ol]
- IC50 [1]: 3.65 nM
- IC50 [2]: 180 nM

SMILES: c1cc2[nH]nc(-c3cc4cc(OCCCN5CCCCC5)ccc4[nH]3)c2s1 [Example 5, 5-(3-Piperidin-1-yl-propoxy)-2-(1H-thieno[3,2-c]pyrazol-3-yl)-indole]
- IC50 [1]: 16.6 nM
- IC50 [2]: 153 nM

SMILES: OC1CCCN(CCCOc2ccc3cc(-c4n[nH]c5cc(-c6ccccc6)sc45)[nH]c3c2)C1 (stereo not drawn)
- melting point: 213 to 216 °C

SMILES: c1ccc2[nH]c(-c3n[nH]c4ccsc34)nc2c1 [Example 1, 2-(1H-Thieno[3,2-c]pyrazol-3-yl)-1H-benzimidazole]
- IC50 [1]: 167 nM
- IC50 [2]: 264 nM

SMILES: OC1CCN(CCCOc2ccc3[nH]c(-c4n[nH]c5ccsc45)cc3c2)C1 (stereo not drawn) [Example 19, 1-{3-[2-(1H-Thieno[3,2-c]pyrazol-3-yl)-1H-indol-5-yloxy]-propyl}-pyrrolidin-3-ol]
- IC50 [1]: 45.7 nM

SMILES: COc1ccc2nc(-c3n[nH]c4c3sc3ccccc34)[nH]c2c1 [Example 3, 3-(6-Methoxy-1H-benzimidazol-2-yl)-1H-benzo[4,5]thieno[3,2-c-]pyrazole]
- IC50 [1]: 86 nM
- IC50 [2]: 2900 nM

SMILES: c1ccc2c(c1)sc1c(-c3nc4ccc(OCCCN5CCCCC5)cc4[nH]3)n[nH]c12 [Example 20, 3-(5-(3-Piperidin-1-yl-propoxy)-1H-Benzoimidazol-2-yl)-1H-benzo[4,5]thieno[3,2-c]pyrazole hydrochloride]
- IC50 [1]: 112 nM

SMILES: COc1ccc2nc(-c3n[nH]c4ccsc34)[nH]c2c1 [Example 2, 6-Methoxy-2-(1H-thieno[3,2-c]pyrazol-3-yl)-1H-benzoimidazole]
- IC50 [1]: 157 nM
- IC50 [2]: 164 nM

SMILES: CCN(CC)CCCOc1ccc2cc(-c3n[nH]c4ccsc34)[nH]c2c1 [Example 12, Diethyl-{3-[2-(1H-thieno[3,2-c]pyrazol-3-yl)-1H-indol-6-yloxy]-propyl}-amine]
- IC50 [1]: 5.22 nM

SMILES: OC1CCN(CCCOc2ccc3cc(-c4n[nH]c5ccsc45)[nH]c3c2)C1 (stereo not drawn) [Example 14, 1-{3-[2-(1H-Thieno[3,2-c]pyrazol-3-yl)-1H-indol-6-yloxyl]-propyl}-pyrrolidin-3-ol]
- IC50 [1]: 15.1 nM

SMILES: OC1CCCN(CCCOc2ccc3[nH]c(-c4n[nH]c5ccsc45)cc3c2)C1 (stereo not drawn) [Example 17, 1-{3-[2-(1H-Thieno[3,2-c]pyrazol-3-yl)-1H-indol-5-yloxy]-propyl}-piperidin-3-ol]
- IC50 [1]: 76.3 nM

SMILES: CN(CCO)CCCOc1ccc2cc(-c3n[nH]c4ccsc34)[nH]c2c1 [Example 15, 2-(Methyl-{3-[2-(1H-thieno[3,2-c]pyrazol-3-yl)-1H-indol-6-yloxy]-propyl}-amino)-ethanol]
- IC50 [1]: 3.26 nM

SMILES: OC(c1ccc2cc(-c3n[nH]c4ccsc34)[nH]c2c1)(C1CC1)C1CC1
- melting point: 110 to 112 °C

SMILES: OC1CCCN(CCCOc2ccc3cc(-c4n[nH]c5ccsc45)[nH]c3c2)C1 (stereo not drawn) [Example 8, 1-{3-[2-(1H-Thieno[3,2-c]pyrazol-3-yl)-1H-indol-6-yloxy]-propyl}-piperidin-3-ol]
- IC50 [1]: 1.62 nM
- IC50 [2]: 11.3 nM

SMILES: CN(C)CCCOc1ccc2cc(-c3n[nH]c4ccsc34)[nH]c2c1 [Example 11, Dimethyl-{3-[2-(1H-thieno[3,2-c]pyrazol-3-yl)-1H-indol-6-yloxy]-propyl}-amine]
- IC50 [1]: 24.2 nM

SMILES: OC1CCN(CCCOc2ccc3cc(-c4n[nH]c5cc(-c6ccccc6)sc45)[nH]c3c2)CC1
- melting point: 239 to 242 °C

SMILES: OCC1CCCN(CCCOc2ccc3[nH]c(-c4n[nH]c5ccsc45)cc3c2)C1 (stereo not drawn) [Example 18, (1-{3-[2-(1H-Thieno[3,2-c]pyrazol-3-yl)-1H-indol-5-yloxy]-propyl}-piperidin-3-yl)-methanol]
- IC50 [1]: 41 nM

SMILES: O=C(c1cc2[nH]nc(-c3cc4cc(CO)ccc4[nH]3)c2s1)N1CCN(c2ccc(F)cc2)CC1
- melting point: 156 to 158 °C

SMILES: C=CCN(CC=C)CCCOc1ccc2cc(-c3n[nH]c4ccsc34)[nH]c2c1 [Example 13, Diallyl-{3-[2-(1H-thieno[3,2-c]pyrazol-3-yl)-1H-indol-6-yloxy]-propyl}-amine]
- IC50 [1]: 12.3 nM

SMILES: OCC1CCCN(CCCOc2ccc3cc(-c4n[nH]c5ccsc45)[nH]c3c2)C1 (stereo not drawn) [Example 9, (1-{3-[2-(1H-Thieno[3,2-c]pyrazol-3-yl)-1H-indol-6-yloxy]-propyl}-piperidin-3-yl)-methanol]
- IC50 [1]: 2.08 nM
- IC50 [2]: 129 nM
